Reference: US20130123287A1, “CONTROL AGENT FOR SOFT ROT AND CONTROL METHOD FOR THE SAME” (ISHIHARA SANGYO KAISHA, LTD., priority 2010, published 2013)

How the values were obtained:
[1] = test system: soft rot of Chinese cabbage; test: Test for controlling soft rot of Chinese cabbage, Example 1 / Comparative Example 1 (field, cultivar Muso); type: in vivo; details: 250 g ai/10 a, 150 L/10 a sprayed onto planting holes before planting, 54 days after start
Description: 200 g/l Azoxystrobin (Amistar 20 FLOWABLE [trade name], manufactured by Syngenta Japan K.K.) was adjusted to 250 g ai/10a (0.25 g/m^2, 1250 ml Product/10a) as the amount of the active ingredient and to 150 L/10a as the volume of diluent water.
100 g/l Cyazofamid (RANMAN FLOWABLE [trade name], manufactured by Ishihara Sangyo Kaisha, Ltd.) was adjusted to 250 g ai/10a (0.25 g/m^2, 2500 ml Product/10a) as the amount of the active ingredient and to 150 L/10a as the volume of diluent water.
177 g/l Amisulbrom (LEIMAY FLOWABLE [trade name], manufactured by Nissan Chemical Industries, Ltd.) was adjusted individually to 250 g ai/10a (0.25 g/m^2, 1412 ml Product/10a) as the amount of the active ingredient and to 150 L/10a as the volume of diluent water.
After spreading an agricultural mulch-sheet and opening planting holes (diameter of about 9 cm) for permanent planting through the mulch-sheet, the spray solutions prepared as described above were sprayed onto the planting holes such that the amount of treated active ingredient of each spray solution was 0.25 g/m^2 (150 L per 10a), followed by air-drying; subsequently, seedlings of Chinese cabbage (cultivar: Muso) grown for 4 weeks in cell mold trays (128 holes/nursery box) were planted such that 30 seedlings were planted in each test lot having an area of 6 m^2 with two replications.
(§1) Preparation was performed by diluting streptomycin (Mycin 20 wettable powder solution [under the trade name] manufactured by Hokko Chemical Industry Co., Ltd.) with water to 1/1000.
In a field spread with the agricultural mulch-sheet, Chinese cabbage seedlings (cultivar: Muso) grown by the same method as in Example 1 were planted by the same method as in Example 1, for spraying the spray solution of streptomycin prepared above in (1) (at each spray volume of 300 L/10a) three times (13 days, 20 days and 27 days after the planting of the seedlings) on the stems and leaves.
54 days after the start of the tests, all the plants in each lot were examined about the severity level of the disease; according to the following equations, the ratio of the plants with the onset of the disease, the frequency of the disease, and the disease control value were calculated to determine and rank the effects at A to D levels. Because soft rot is a disease with damages hardly controlled, herein, even a chemical at the level C determined by the tests of the effects can practically be used.
Ratio of the plants with the onset of the disease=(Number of plants with the onset of the disease/number of plants examined)*100
Frequency of the disease=[sigma(number of plants with the onset of the disease at each severity level*index of the onset of the disease)/(plants examined*4)]*100 […]

[2] = test system: soft rot of Chinese cabbage; test: Test for controlling soft rot of Chinese cabbage, Example 2 / Comparative Example 2 (field, cultivar Harebutai 65); type: in vivo; details: 150 L/10 a sprayed onto planting holes before planting, 64 days after start
Text: Frequency of the disease=[sigma(number of plants with the onset of the disease at each severity level*index of the onset of the disease)/(plants examined*4)]*100
Disease control value=[1-(frequency of the disease in the treated lot/frequency of the disease in the non-treated lot)]*100
• 0: No onset • 1: Onset in some of outer leaves (shippable) • 2: Onset in outer leaves and some of head leaves (by removing damaged parts, the resulting cabbage can be shipped as small cabbage but is ranked as grade B). • 3: Most of head leaves are inflicted with the onset of the disease or with severer damages (not shippable) • 4: Whole cabbage plant is inflicted with the onset of the disease and is dead.
200 g/l Azoxystrobin (Amistar 20 FLOWABLE [trade name], manufactured by Syngenta Japan K.K.) was adjusted to 500 g ai/10a (0.5 g/m^2, 2500 ml Product/10a) as the amount of the active ingredient and to 150 L/10a as the volume of diluent water.
30% w/w triflumizol (TRIFUMIN WP [trade name], manufactured by Nippon Soda Co., Ltd.) was adjusted to 500 g ai/10a (0.5 g/m^2, 1667 g Product/10a) as the amount of the active ingredient and to 150 L/10a as the volume of diluent water.
100 g/1 cyazofamid (RANMAN PLOWABLE [trade name], manufactured by Ishihara Sangyo Kaisha, Ltd.) was adjusted to 500 g ai/10a (0.5 g/m^2, 5000 ml Product/10a) as the amount of the active ingredient and to 150 L/10a as the volume of diluent water.
50% w/w penthiopyrad (GAIA WG [trade name], manufactured by Mitsui Chemicals Agro, Inc.) was adjusted to 500 g ai/10a (0.5 g/m^2, 1000 g Product/10a) as the amount of the active ingredient and to 150 L/10a as the volume of diluent water.
50 g/l flusulfamide (SCABLOCK SC [trade name], manufactured by Mitsui Chemicals Agro, Inc.) was adjusted to 500 g ai/10a (0.5 g/m^2, 10000 ml Product/10a) as the amount of the active ingredient and to 150 L/10a as the volume of diluent water.
400 g/1 chlorothalonil (Daconil 1000 [the trade name], manufactured by Sumitomo Chemical, Limited) was adjusted to 1000 g ai/10a (1.0 g/m^2, 2500 ml Product/10a) as the amount of the active ingredient and to 150 L/10a as the volume of diluent water.
After spreading an agricultural mulch-sheet and opening planting holes (diameter of about 5 cm) for permanent planting through the mulch-sheet, the spray solutions prepared as described above were sprayed onto the planting holes such that the amount of treated active ingredient of chlorothalonil was 1.0 g/m^2 (150 L per 10a) and the amount of each of the remaining spray solutions was 0.5 g/m^2 (150 L per 10a), followed by air-drying; subsequently, seedlings of Chinese cabbage (cultivar Harebutai 65) grown for 4 weeks in cell mold trays (128 holes/nursery box) were planted such that 19 seedlings were planted in each test lot having an area of 2.4 m^2 with two replications.
as §1
In a field spread with the agricultural mulch-sheet, Chinese cabbage seedlings (cultivar: Harebutai 65) grown by the same method as in Example 2 were planted by the same method as in Example 2, for spraying the spray solution of streptomycin prepared above in (1) (at each spray volume of 300 L/10a) twice (27 days and 48 days after the planting of the seedlings) on the stems and leaves with a sprayer.
64 days after the start of the tests, all the plants in each lot were examined about the severity level of the disease to assess the frequency of the disease and the disease control value. In the same manner as described above, the frequency of the disease and the disease control value were determined. Additionally, soft rot is a disease with damages hardly controlled, so even a chemical at the level C determined by the tests of the effects can practically be used.

[3] = test system: bacteria causing the soft rot (Erwinia carotovora); test: Inhibition test of growth of bacteria causing soft rot, Reference Test Example 2; type: cell-based; details: for formed colonies (growth state), grade: PSA medium, 27 degrees Celsius, 2 days; for inhibition of growth of Erwinia carotovora (in words): active ingredient concentration of 1,000 ppm
Text: (§2) Inhibition test of growth of bacteria causing soft rot of potato An inhibition test of the growth of bacteria causing the soft rot was done, when a control agent was directly applied to the bacteria causing the soft rot. A given volume of each pesticide of azoxystrobin (Amistar-20 FLOWABLE [trade name], manufactured by Syngenta Japan K.K.), penthiopyrad (GAIA WG [trade name], manufactured by Mitsui Chemicals Agro, Inc.), flusulfamide (SCABLOCK SC [trade name] manufactured by Mitsui Chemicals Agro, Inc.), and streptomycin (Mycin Wettable powder [trade name] manufactured by Hokko Chemical Industry Co., Ltd.) was added together with a suspension of the bacteria causing the soft rot (Erwinia carotovora) to a preliminarily dissolved PSA culture medium (55 degrees Celsius) for subsequent thorough agitation, which was then spread on a plate for culturing at 27 degrees Celsius for 2 days, to examine the growth state. Subsequently, the formed colonies were examined according to the following three grades. • +: at the same level as the level of non-treated lot.
(§3) Plus or minus: apparently less than the colonies of the non-treated lot. • −: almost no colonies observed.

[4] = test system: bacteria causing the soft rot (Erwinia carotovora); test: Inhibition test of growth of bacteria causing soft rot, Reference Test Example 3; type: cell-based; details: for formed colonies (growth state), grade: PSA medium, 27 degrees Celsius, 2 days; for inhibition of growth of Erwinia carotovora (in words): active ingredient concentration of 1,000 ppm
Text: as §2, with “triflumizol (TRIFUMIN WP [trade name] manufactured by Nippon Soda Co., Ltd.), chlorothalonil (Daconil 1000” for “azoxystrobin (Amistar-20 FLOWABLE”, “Sumitomo Chemical Company, Limited)” for “Syngenta Japan K.K.), penthiopyrad (GAIA WG [trade name], manufactured by Mitsui Chemicals Agro, Inc.), flusulfamide (SCABLOCK SC [trade name] manufactured by Mitsui Chemicals Agro, Inc.),”, “lot. Plus or minus: apparently less than the colonies of the non-treated lot. • −: almost no colonies observed.” for “lot.”

[5] = test system: bacteria causing the soft rot (Erwinia carotovora); test: Inhibition test of growth of bacteria causing soft rot, Reference Test Example 1; type: cell-based; details: for formed colonies (growth state), grade: PSA medium, 25 degrees Celsius, 4 days
Description: as §2, with “An” for “Inhibition test of growth of bacteria causing soft rot of potato An”, “cyazofamid (RANMAN 400SC [trade name] manufactured by Ishihara Sangyo Kaisha, Ltd.), amisulbrom (LEIMAY” for “azoxystrobin (Amistar-20”, “Nissan Chemical Industries, Ltd.)” for “Syngenta Japan K.K.), penthiopyrad (GAIA WG [trade name], manufactured by Mitsui Chemicals Agro, Inc.), flusulfamide (SCABLOCK SC [trade name] manufactured by Mitsui Chemicals Agro, Inc.),”, “25” for “27”, “4” for “2”
as §3

## CO/C=C(/C(=O)OC)c1ccccc1Oc1cc(Oc2ccccc2C#N)ncn1 [Azoxystrobin, methyl=(E)-2-{2-[6-(2-cyanophenoxy)pyrimidin-4-yloxy]phenyl}-3-methoxyacrylate]
[1]
  Determination of effect: C (C: Effective at low level (21 to 40 disease control value))
[2]; 500 g ai/10 a
  Determination of effect: B (B: Effective (41 to 60 disease control value))
[3]; 100 ppm active ingredient
  formed colonies (growth state), grade: +, +
[3]; 500 ppm active ingredient
  formed colonies (growth state), grade: +, +
[3]; 1000 ppm active ingredient
  formed colonies (growth state), grade: +, +
[3]
  inhibition of growth of Erwinia carotovora (in words): never inhibited the growth

## O=[N+]([O-])c1ccc(NS(=O)(=O)c2ccc(Cl)c(C(F)(F)F)c2)c(Cl)c1 [Flusulfamide, 2′, 4-dichloro-alpha,alpha,alpha-trifluoro-4′-nitro-m-toluenesulfone anilide]
[2]; 500 g ai/10 a
  Determination of effect: B (B: Effective (41 to 60 disease control value))
[3]; 100 ppm active ingredient
  formed colonies (growth state), grade: +, +
[3]; 500 ppm active ingredient
  formed colonies (growth state), grade: +, +
[3]; 1000 ppm active ingredient
  formed colonies (growth state), grade: +, +
[3]
  inhibition of growth of Erwinia carotovora (in words): never inhibited the growth

## CCCOC/C(=N\c1ccc(Cl)cc1C(F)(F)F)n1ccnc1 [Triflumizol, (E)-4-chloro-alpha,alpha,alpha-trifluoro-N-[1-imidazol-1-yl-2-propoxyethylidene]-o-to luidine]
[2]; 500 g ai/10 a
  Determination of effect: C (C: Effective at low level (21 to 40 disease control value))
[4]; 100 ppm active ingredient
  formed colonies (growth state), grade: +, +
[4]; 500 ppm active ingredient
  formed colonies (growth state), grade: +, +
[4]; 1000 ppm active ingredient
  formed colonies (growth state), grade: +, +
[4]
  inhibition of growth of Erwinia carotovora (in words): never inhibited the growth

## N#Cc1c(Cl)c(Cl)c(Cl)c(C#N)c1Cl [Chlorothalonil, 2,4,5,6-tetrachloro-1,3-benzene dicarbonitrile]
[2]; 1000 g ai/10 a
  Determination of effect: B (B: Effective (41 to 60 disease control value))
[4]; 100 ppm active ingredient
  formed colonies (growth state), grade: +, +
[4]; 500 ppm active ingredient
  formed colonies (growth state), grade: +, +
[4]; 1000 ppm active ingredient
  formed colonies (growth state), grade: +, +
[4]
  inhibition of growth of Erwinia carotovora (in words): never inhibited the growth

## Cc1c(Br)c2ccc(F)cc2n1S(=O)(=O)c1ncn(S(=O)(=O)N(C)C)n1 [Amisulbrom, 3-[(3-bromo-6-fluoro-2-methyl-1H-indol-1-yl)sulfonyl]-N,N-dimethyl-1H-1,2,4-triazole-1-sulfoneamide]
[1]
  Determination of effect: C (C: Effective at low level (21 to 40 disease control value))
[5]; 100 ppm active ingredient
  formed colonies (growth state), grade: +, +
[5]; 500 ppm active ingredient
  formed colonies (growth state), grade: +, +
[5]; 1000 ppm active ingredient
  formed colonies (growth state), grade: +, +
[5]; active ingredient concentration of 1,000 ppm
  inhibition of growth of Erwinia carotovora (in words): never inhibited the growth

## CC(C)CC(C)c1sccc1NC(=O)c1cn(C)nc1C(F)(F)F (racemic) [Penthiopyrad, (RS)-N-[2-(1,3-dimethylbutyl)-3-thienyl]-1-methyl-3-(trifluoromethyl)-1H-pyrazole-4-carboxamide]
[2]; 500 g ai/10 a
  Determination of effect: C (C: Effective at low level (21 to 40 disease control value))
[3]; 100 ppm active ingredient
  formed colonies (growth state), grade: +, +
[3]; 500 ppm active ingredient
  formed colonies (growth state), grade: +, +
[3]; 1000 ppm active ingredient
  formed colonies (growth state), grade: +, +
[3]
  inhibition of growth of Erwinia carotovora (in words): never inhibited the growth
